This passage reports IC50, Ki and inhibition results from ChEMBL document CHEMBL1140350, “The endocannabinoid system: drug targets, lead compounds, and potential therapeutic applications” (J Med Chem, 2005).

The species named for one assay is Mus musculus. The experiment in a line: Concentration required to inhibit anandamide uptake from the extracellular medium into cells. It is filed as functional, cell-based.
Assay [1] addresses T1, Fatty-acid amide hydrolase 1 (Homo sapiens, UniProt O00519).
T1 sequence (O00519 whole entry): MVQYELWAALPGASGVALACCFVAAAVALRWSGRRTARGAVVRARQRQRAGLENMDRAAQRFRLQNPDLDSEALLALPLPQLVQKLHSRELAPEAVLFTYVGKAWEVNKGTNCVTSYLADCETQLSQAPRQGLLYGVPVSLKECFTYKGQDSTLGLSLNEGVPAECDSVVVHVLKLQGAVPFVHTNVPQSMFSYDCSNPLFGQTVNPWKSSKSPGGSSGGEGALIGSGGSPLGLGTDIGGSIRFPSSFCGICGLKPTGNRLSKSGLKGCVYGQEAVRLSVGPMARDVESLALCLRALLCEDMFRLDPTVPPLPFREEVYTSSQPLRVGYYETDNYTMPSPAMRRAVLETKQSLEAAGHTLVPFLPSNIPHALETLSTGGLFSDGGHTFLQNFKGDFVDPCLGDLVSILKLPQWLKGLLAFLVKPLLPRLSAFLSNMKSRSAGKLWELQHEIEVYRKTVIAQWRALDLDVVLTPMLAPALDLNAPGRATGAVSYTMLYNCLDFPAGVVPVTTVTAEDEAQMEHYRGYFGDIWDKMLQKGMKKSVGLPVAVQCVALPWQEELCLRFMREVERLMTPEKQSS
Nature of the assay: Binding affinity for human fatty acid amide hydrolase.

The target of another assay is T2, Monoglyceride lipase (Homo sapiens, UniProt Q99685).
T2 sequence (Q99685 whole entry): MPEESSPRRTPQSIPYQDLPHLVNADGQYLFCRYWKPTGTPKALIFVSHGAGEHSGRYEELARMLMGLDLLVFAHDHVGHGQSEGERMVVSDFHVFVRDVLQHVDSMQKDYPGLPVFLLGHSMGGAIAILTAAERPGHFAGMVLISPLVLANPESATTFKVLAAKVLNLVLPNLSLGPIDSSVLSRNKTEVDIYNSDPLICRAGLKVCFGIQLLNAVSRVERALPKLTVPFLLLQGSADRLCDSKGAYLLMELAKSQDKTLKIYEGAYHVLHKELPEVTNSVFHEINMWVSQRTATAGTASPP
Nature of the assay: Inhibitory concentration against monoacylglycerol lipase.

Assay [2] addresses T1, Fatty-acid amide hydrolase 1. Nature of the assay: Inhibitory concentration against fatty acid amide hydrolase.
Assay [3] has the same target. Nature of the assay: Irreversible inhibition of fatty acid amide hydrolase.
Assay [4] is described as follows: Binding affinity for cannabinoid receptor 2.
The next assay has as its target Cannabinoid receptor (Homo sapiens, UniProt P34972+P21554). The experiment in a line: Binding affinity for Cannabinoid receptor. It is filed as protein assay.
Assay [5] addresses T1, Fatty-acid amide hydrolase 1. The experiment in a line: Binding affinity for fatty acid amide hydrolase.
Assay [6] has the same target. Nature of the assay: Inhibition of fatty acid amide hydrolase; range =. 23-3 uM.
Assay [7] addresses T3, Fatty-acid amide hydrolase 1 (Mus musculus) (UniProt O08914).
T3 sequence (whole entry): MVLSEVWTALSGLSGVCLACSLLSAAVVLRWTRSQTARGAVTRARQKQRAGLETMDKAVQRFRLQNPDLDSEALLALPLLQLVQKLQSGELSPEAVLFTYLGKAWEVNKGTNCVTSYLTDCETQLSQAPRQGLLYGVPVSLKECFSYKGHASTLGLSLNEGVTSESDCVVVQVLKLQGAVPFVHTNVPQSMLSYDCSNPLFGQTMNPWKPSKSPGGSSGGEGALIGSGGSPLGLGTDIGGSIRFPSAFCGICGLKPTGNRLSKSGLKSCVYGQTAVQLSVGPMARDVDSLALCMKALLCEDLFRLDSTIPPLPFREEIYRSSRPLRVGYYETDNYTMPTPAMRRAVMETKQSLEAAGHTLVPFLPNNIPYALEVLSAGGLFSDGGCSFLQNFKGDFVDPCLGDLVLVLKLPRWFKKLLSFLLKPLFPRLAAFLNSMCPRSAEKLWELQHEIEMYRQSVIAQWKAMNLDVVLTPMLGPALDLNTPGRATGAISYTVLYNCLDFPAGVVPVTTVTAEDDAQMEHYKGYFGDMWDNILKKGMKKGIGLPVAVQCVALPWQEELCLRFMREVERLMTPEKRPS
Nature of the assay: Inhibitory potency against fatty acid amide hydrolase activity in mouse brain microsomes in presence of 58 uM anandamide at 160 uM. It is filed as functional. The conditions noted are these: Microsome.

The species entered for a further assay is Homo sapiens. Nature of the assay: Concentration required to inhibit anandamide uptake into human monocytes. The format is functional.
The target of assay [8] is T1, Fatty-acid amide hydrolase 1. The experiment in a line: Inhibition of fatty acid amide hydrolase; range = 4.1-7 uM.
The target in assay [9] is T4, Cannabinoid receptor 1 (Rattus norvegicus, UniProt P20272). The experiment in a line: (§1) Binding affinity for cannabinoid receptor 1.
In assay [10] the target is T1, Fatty-acid amide hydrolase 1. Nature of the assay: Irreversible inhibition of fatty acid amide hydrolase; range=. 5-6 nM.
For assay [11] the target is unchanged. The experiment in a line: Apparent binding affinity for fatty acid amide hydrolase.
The target of assay [12] is T5, N-acylethanolamine-hydrolyzing acid amidase (Homo sapiens, UniProt Q02083).
T5 sequence (Q02083 whole entry): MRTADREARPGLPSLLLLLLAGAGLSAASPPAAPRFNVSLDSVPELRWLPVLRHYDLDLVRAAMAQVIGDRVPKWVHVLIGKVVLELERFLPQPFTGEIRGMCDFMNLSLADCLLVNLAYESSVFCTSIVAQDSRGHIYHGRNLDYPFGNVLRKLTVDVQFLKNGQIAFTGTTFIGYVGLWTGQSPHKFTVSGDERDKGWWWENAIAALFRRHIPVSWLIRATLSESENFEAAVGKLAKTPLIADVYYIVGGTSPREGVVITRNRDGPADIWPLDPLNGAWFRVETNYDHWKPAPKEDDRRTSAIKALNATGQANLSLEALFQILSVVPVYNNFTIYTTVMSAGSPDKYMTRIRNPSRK
Nature of the assay: Inhibitory concentration against N-palmitoylethanolamine acid amidase.

For assay [13], the target named is Cannabinoid receptor 1 (Homo sapiens, UniProt P21554). The assay is described as §1.
Assay [14] addresses T4, Cannabinoid receptor 1. The experiment in a line: Inhibition of [3H]CP-55940 binding to rat cannabinoid receptor 1.
Assay [15] deals with T6, N-acylethanolamine-hydrolyzing acid amidase (Homo sapiens) (UniProt Q02083).
T6 sequence (whole entry): T5 sequence (Q02083 whole entry)
Nature of the assay: Percent inhibition aganist N-palmitoylethanolamine acid amidase at 10 uM.

What is called IC50 is the point on the concentration scale where inhibition reaches its midpoint. Lower therefore signals higher potency. As usually defined, the inhibition is how much of the control response was suppressed.

T4 sequence (P20272 whole entry): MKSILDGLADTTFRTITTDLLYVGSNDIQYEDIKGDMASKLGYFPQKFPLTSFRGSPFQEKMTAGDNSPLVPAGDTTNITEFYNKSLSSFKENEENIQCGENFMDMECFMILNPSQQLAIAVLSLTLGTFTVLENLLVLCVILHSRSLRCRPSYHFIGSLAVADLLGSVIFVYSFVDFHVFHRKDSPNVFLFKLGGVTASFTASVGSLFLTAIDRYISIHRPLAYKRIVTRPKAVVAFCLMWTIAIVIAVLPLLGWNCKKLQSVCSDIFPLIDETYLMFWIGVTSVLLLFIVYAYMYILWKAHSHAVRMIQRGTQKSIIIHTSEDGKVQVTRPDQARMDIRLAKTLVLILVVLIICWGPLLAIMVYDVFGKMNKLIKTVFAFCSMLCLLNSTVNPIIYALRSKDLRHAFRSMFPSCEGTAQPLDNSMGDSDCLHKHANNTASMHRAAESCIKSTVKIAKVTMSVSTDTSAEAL
Chain of Cannabinoid receptor 1 (Homo sapiens, UniProt P21554) (P21554 whole entry): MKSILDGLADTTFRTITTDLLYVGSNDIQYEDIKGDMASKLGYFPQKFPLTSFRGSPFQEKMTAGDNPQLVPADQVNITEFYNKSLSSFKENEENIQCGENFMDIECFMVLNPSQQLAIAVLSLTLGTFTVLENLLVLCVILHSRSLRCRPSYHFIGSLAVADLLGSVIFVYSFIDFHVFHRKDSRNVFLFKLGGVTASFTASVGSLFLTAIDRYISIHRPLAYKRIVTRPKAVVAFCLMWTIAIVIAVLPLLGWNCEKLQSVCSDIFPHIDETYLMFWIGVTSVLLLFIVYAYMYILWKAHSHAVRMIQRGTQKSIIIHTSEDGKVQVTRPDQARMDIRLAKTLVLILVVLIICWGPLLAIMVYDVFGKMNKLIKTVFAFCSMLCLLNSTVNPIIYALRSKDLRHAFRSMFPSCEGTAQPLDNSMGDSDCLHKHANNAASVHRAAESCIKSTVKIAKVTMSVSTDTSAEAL

Regarding `CCCCC/C=C\C/C=C\C/C=C\C/C=C\CCCC(=O)Nc1ccc(O)cc1`, the IC50 in the assay filed under Mus musculus is about 10000 nM.
`O=C(CCCCCc1ccccc1)c1nc2ncccc2o1` registered a Ki in assay [1] of 0.094 nM.
In the case of `CCCCC/C=C\C/C=C\C/C=C\C/C=C\CCC(C)C(=O)OCC(O)CO` (stereo not drawn), the half-inhibitory concentration (IC50) (at Monoglyceride lipase; in assay [2]) was about 11000 nM throughout.
In assay [3], `O=C1O/C(=C/Br)CCC1c1cccc2ccccc12` (stereo not drawn) [BROMOENOL LACTONE] had an IC50 of 800 nM.
Compound `CCCCC/C=C\C/C=C\C/C=C\C/C=C\CCCCS(=O)(=O)F` gave an IC50 in [3] of 0.1 nM.
In turn, `CCCCC/C=C\C/C=C\C/C=C\C/C=C\CCCC(=O)NCCO` [ANANDAMIDE] registered a Ki in [4] of 370 nM.
`CCCCCC[C@@H](C)OC(=O)CC(=O)CBr` yielded a Ki at Cannabinoid receptor of 800 nM.
`CCCCCCCCCCCCS(=O)(=O)F` [DODECANESULFONYL FLUORIDE]: in assay [3], half-maximal inhibition (IC50) was put at 3 nM.
`CC(C)(/C=C\C/C=C\C/C=C\C/C=C\CCCC(=O)OCC(O)CO)CCCCO` (stereo not drawn): the IC50 (at Monoglyceride lipase; in [2]) was about 11000 nM each time.
`CCCCCCCCCCCCCCCC(=O)NCC(=O)OC`: the IC50 in [2] was 10000 nM.
`O=S(=O)(F)Cc1ccccc1` [PHENYLMETHYLSULFONYLFLUORIDE] gave an IC50 in assay [3] of 13000 nM.
In [5], `CCCCCCCC/C=C\CCCCCCC(C)C(=O)c1nc2ncccc2o1` (stereo not drawn) came in with a Ki of 9.1 nM.
For the compound `O=C(CCCCCCc1ccccc1)c1nc2ncccc2o1`, the 50% inhibitory concentration (IC50) in assay [2] was 2.1 nM.
In the case of `CCCCC/C=C\C/C=C\C/C=C\C/C=C\CCCC(=O)OCCO`, the results for the IC50 (at Monoglyceride lipase; in assay [2]) were 25000 nM and over 25000 nM, respectively.
Regarding `CCCCCCCC/C=C\CCCCCCCC(=O)c1nc2ncccc2o1`, the Ki in assay [5] turned out to be 2.3 nM.
Still for that read-out and setting: the value for `CCCCCCCC/C=C\CCCCCCCC(=O)C(F)(F)F` was 1.2 nM.
In [6], `CCCCC/C=C\C/C=C\C/C=C\C/C=C\CCCC(=O)C(F)(F)F` [ARACHIDONYL TRIFLUOROMETHYLKETONE] showed a 50% inhibitory concentration (IC50) of 3000 nM.
`C=C(C)[C@@H]1CCC(C)=C[C@H]1c1c(O)cc(CCCCC)cc1O`: the inhibition in assay [7] amounted to 66%.
Take `C=CCOc1ccc(CN(C/C=C/c2ccccc2)CCCC)cc1`: in the assay filed under Homo sapiens, the IC50 stood at 90 nM.
`CCCCCCCCCCCCCCCNC(=O)COC(C)=O` [ACETIC ACID PENTADECYLCARBAMOYLMETHYL ESTER]: in [2], the IC50 turned out to be 8000 nM.
The same measure, in the same setting: then `CC(C)c1cccc(C(C)C)c1O` [PROPOFOL], with 52000 nM.
Take `CCCCC/C=C\C/C=C\C/C=C\C/C=C\CCCC(=O)NCC(=O)O` [ARACHIDONOYL GLYCINE]: the IC50 in [8] is 7000 nM.
As to `CCCCC/C=C\C/C=C\C/C=C\C/C=C\CCCC(=O)NCCc1c[nH]c2ccc(O)cc12`, the IC50 in [2] is 12000 nM.
As for `CCCCC/C=C\C/C=C\C/C=C\C/C=C\CCCCOC(CO)CO`, the Ki on Cannabinoid receptor 1 [9] is 21 nM.
Compound `CCCCC/C=C\C/C=C\C/C=C\C/C=C\CCCC(=O)[CH-][N+]#N` displayed an IC50 in [10] of 6 nM.
As for `CCCCCc1cc(O)c2c(c1)OC(C)(C)[C@@H]1CCC(C)=C[C@@H]21` [DRONABINOL], the inhibition in assay [7] stood at 31%. The same compound came in with a Ki in assay [4] of 20 nM.
With `CCCCCCCc1ccc(CCCCCCC(=O)C(F)(F)F)cc1`, the Ki in [11] stood at 96 nM.
Consider `CCCCCCCCCCCCCCCCCCS(=O)(=O)F` [OCTADECANESULFONYL FLUORIDE], for which the IC50 in [3] stood at 4 nM.
Take `CCCCCCCCCCCCCCCCOC(=O)CC` [HEXADECYLPROPIONATE]: the IC50 in assay [12] came out at 32000 nM.
Consider `Cc1c(C(=O)c2cccc3ccccc23)c2cccc3c2n1[C@H](CN1CCOCC1)CO3` [WIN-552122], for which the Ki in assay [4] was determined as 1.8 nM.
As for `CCCCC/C=C\C/C=C\CC/C=C\CCCC(=O)NCCc1ccc(O)c(O)c1`, in assay [2], the midpoint of inhibition, the IC50, lay at 19000 nM.
Regarding `CCCCCCCCCCC[C@@H](C[C@@H]1OC(=O)[C@H]1CCCCCC)OC(=O)[C@H](CC(C)C)NC=O` [ORLISTAT], the half-maximal inhibitory concentration (IC50) on Cannabinoid receptor 1 [13] is at most 100 nM.
With `CCCCCCCC/C=C\CCCCCCCC(N)=O` [OLEAMIDE], the Ki at Cannabinoid receptor 1 [14] was 1140 nM.
With `CCCCC/C=C\C/C=C\C/C=C\C/C=C\CCCC(=O)c1nc2ncccc2o1`, the Ki in [5] was found to be 1 nM.
In assay [12], `CCCCCCCCCCCCCCCC(=O)OC1CCCCC1` [CYCLOHEXYL PALMITATE] displayed a concentration for half-maximal inhibition (IC50) of 19000 nM.
Consider `CCCCCc1cc(O)c2c(c1)OC(C)(C)c1ccc(C)cc1-2`, for which the inhibition in assay [7] was 46%.
On to `CCCCCCCCCCCCCCCNC(=O)C1CCCCC1` [CYCLOHEXANECARBOXYLIC ACID PENTADECYLAMIDE], for which, in [15], the inhibition came to 66%. In addition, the IC50 in assay [12] was 4500 nM.
As to `CCCCC/C=C\C/C=C\C/C=C\C/C=C\CCCC(=O)OCCN`, the Ki on Cannabinoid receptor 1 [9] turned out to be 1900 nM; in assay [4], 1400 nM.
Turning to `CCCCCCCCCCCCCCCNC(=O)CCO`, the half-inhibitory concentration (IC50) in assay [12] was 54000 nM.
The compound `CCCCCCC(C)(C)c1ccc([C@@H]2C[C@H](O)CC[C@H]2CCCO)c(O)c1` [CP-55940] gave a Ki in [4] of 2.6 nM.
In the case of `CCCCC/C=C\C/C=C\C/C=C\C/C=C\CCCC(=O)NCCc1ccc(O)c(O)c1` [ARACHIDONOYL DOPAMINE], the Ki on Cannabinoid receptor 1 [9] stood at 250 nM; in assay [4] it was 12 nM.
As to `CCCCCCCCCCCCCCCC(=O)NC(C)C` [HEXADECANOIC ACID ISOPROPYLAMIDE], in [2], it took 13 nM to reach half-maximal inhibition (IC50).
Take `CCCCCCCCCCCCCCCNC(=O)c1ccccc1`: the inhibition in assay [15] was found to be 61%.
As for `CC(C)(/C=C\C/C=C\C/C=C\C/C=C\CCCC(=O)OCC(O)CO)CCCCC#N` (stereo not drawn), the IC50 (against Monoglyceride lipase; in [2]) was about 11000 nM each time.
Consider `O=C(CCCCCCCc1ccccc1)C(F)(F)F`, for which, in [5], the Ki was 25 nM.
